One data set concerns bone marrow cells. The data set can be described thus: DAF-based hemoglobin colorimetry assay on cultured bone marrow cells from phenylhydrazine-induced anemic mice. The data set is classed as cell-based, C57BL/6JNarl mice. Conditions: about 0.1 to about 20 μg/ml, 4 days, with 50 mU/ml EPO; **P<0.01 versus control (0 μg/ml); FIG. 1. The method, then: C57BL/6JNarl mice, 8-10 weeks of age, were purchased from the National Laboratory Animal Center (NLAC, Taiwan). Acute hemolytic anemia was induced by a single intraperitoneal (i.p.) injection of phenylhydrazine hydrochloride (Sigma-Aldrich) at a dose of 100 mg/kg in a phosphate buffered saline (PBS). Six days after the injection, bone marrow cells were isolated from mice and cultured according to the procedure described in Worthington et al., (1985) and Rosenthal et al. (1987) with minor modifications. […]
In the next day, different concentrations of compound A (0, 0.1, 0.5, 2.5, 12.5 and 20 μg/ml) were added to the cells, respectively, and incubated for 4 days. The relative levels of hemoglobin were determined using DAF-based hemoglobin colorimetry assay according to Kaiho (1985) and Worthington (1985) with minor modifications. […] The absorbance at 610 nm was measured by Victor 2 1420 Multilable Counter (Wallac, PerkinElmer). Results were expressed as relative index±S.E. (n=6). Statistical significance was evaluated by Student's t test (**P<0.01 versus control group (0 μg/ml)).

A further data set relates to erythropoietin (Epo). The data set can be described thus: Epo expression in isolated hepatocytes (RT-PCR). It is filed as cell-based, mouse. Conditions: 0.1-12.5 μg/ml, 24 hours; FIG. 4. The method, then:
C57BL/6JNarl mice, 8-10 weeks of age, were purchased from the National Laboratory Animal Center (NLAC, Taiwan). The hepatocytes were isolated as previously described with modifications (Kreamer et al., 1986). Briefly, mice were anaesthetized with Avertin (2% (w/v) 2,2,2-tribromoethanol, i.p., 300 mg/Kg body weight) and the liver was perfused in situ through portal vein with a calcium-free Hank's balanced salt solution (HBSS) containing 0.5 mM Ethylene glycol-bis(2-aminoethylether)-N,N,N′,N′-tetraacetic acid (EGTA; Sigma-Aldrich). […] After 10 min of perfusion, HBSS containing 0.05% (w/v) collagenase (Type II; Worthington Biochemical Corporation) and 1 mM calcium chloride (Sigma-Aldrich) was introduced into the perfusion apparatus. The perfusion was continued for another 10 min at the same flow rate. The partially digested liver was removed, placed in a 60-mm culture dish (BD Falcon) containing HBSS, and gently minced to open the liver capsula. […]
The isolated hepatocytes were plated in 6-well plates (Costar) at approximately 6×10^5 cells/well in DMEM medium (Gibco/Invitrogen) containing 10% FBS (Gibco) in a humidified 37° C. incubator containing 5% CO2-95% air. […] The RNA of hepatocyte was extracted by RNA-Bee™ RNA isolation solvent (Tel-test) for reverse transcription, and the transcripts analyzed by PCR as previously described.

The test system of data set [1] is hepatocyte growth factor (HGF). The data set can be described thus: liver expression of HGF in cisplatin-induced acute renal failure animal model (PCR). The data set is classed as in vivo, mouse. Conditions: 10~90 mg/Kg/day, day 28; FIG. 10. The method, then:
The effects of Compound A treatment on cisplatin-induced acute renal failure animal model were investigated. C57BL/6JNarl mice (8-week-old) were purchased from the National Laboratory Animal Center (NLAC, Taiwan). Cisplatin (Sigma-Aldrich) was dissolved in normal saline (0.9% (w/v) sodium chloride, Sigma-Aldrich) at a concentration of 1 mg/ml, and injected into mice intraperitoneally (i.p.) according to the following schedule: day 1, 7 mg/kg; day 5, 6 mg/kg; and day 9, 6 mg/kg. For cisplatin-untreated normal mice group, normal saline injections of corresponding volumes were given i.p. in parallel. At day 13, serum samples were collected and blood urea nitrogen (BUN) contents were assayed. […]
At the end of the experiments described in EXAMPLE 6 (i.e., day 28), mice were sacrificed, kidney and liver tissues were removed, and bone marrow cells were isolated. […] The reverse-transcribed cDNA samples were analyzed by PCR using ABI GeneAmp™ system 2700 (Applied Biosystems) and the SYBR Green Master Mix kit (Applied Biosystems) using primers targeting toward mouse glyceraldehyde 3-phosphate dehydrogenase (GAPDH) (SEQ ID NOs: 5 and 6), erythropoietin (Epo) (SEQ ID NOs: 3 and 4) and hepatocyte growth factor (HGF) (SEQ ID NOs: 7 and 8) (Table 1). Results were expressed as relative index±S.E. (n=5˜6). […]

SMILES strings stand for the structures.

On to `OC[C@H]1O[C@@H](Oc2c(O)cc(O)cc2/C=C/c2ccc(O)cc2)[C@H](O)[C@@H](O)[C@@H]1O` [Compound A, 2,3,5,4′-tetrahydroxystilbene 2-O-β-D-glucopyranoside], for which the “hemoglobin formation (relative index)” value with bone marrow cells is recorded as “significantly enhanced hemoglobin formation”. Besides, the “expression of Epo in hepatocytes” value in the data set on erythropoietin (Epo) is given as “enhanced the expression of Epo in hepatocytes”. In addition, the “expression of HGF in liver tissue (relative index)” value in data set [1] is given as “enhanced the expression of HGF in liver tissue”.

The record behind these values is patent US9980979B2, “Compounds and methods for enhancing erythropoiesis” (NATIONAL YANG-MING UNIVERSITY, priority 2008, dated 2018).
